Experimental data as given in patent publication US8557804B2, “Nicotinic receptor agonists for the treatment of inflammatory diseases” (priority 2002, dated 2013).
Values joined by “and” are separate entries in the source; they are usually repeats but may differ in a detail not shown here. Equal entries are not always repeated.

How the values were obtained:
[1] = system: SR-induced inflammation in mice; experiment: Short term SR-induced acute lung inflammation in mice, BAL cells; format: in vivo
Description: The Intranasal instillation of Saccharopolyspora rectivirgula (SR) antigens, the causative agent for farmer's lung, to mice, induces a prominent inflammatory response in the lung. Neutrophils are the first inflammatory cells recruited at the site of inflammation.

[2] = system: TNF release by human blood monocytes; experiment: cells; format: cell-based; conditions: 40 μM, mean of 5 subjects
Experimental: Human monocytes were isolated from the blood of asthmatic patients by Ficoll-paque density gradient, let to adhere to tissue culture plates and stimulated with LPS (100 ng/ml) for 18 hours at 37° C. with or without increasing concentrations of nicotine. The release of TNF, a potent pro-inflammatory mediator, was measured in the cell culture supernatant by the ELISA method. Results are expressed as a percentage release from LPS-stimulated untreated cells (FIG. 28).
Tumor necrosis factor (TNF) is a mediator released in inflammatory states.
Human blood monocytes were isolated by Ficoll-paque density gradient, let to adhere to tissue culture plates and stimulated with LPS (100 ng/ml) for 18 hours at 37° C. with or without increasing concentrations of nicotine analogues.

[3] = system: CD86 expression on alveolar macrophages; experiment: CD86 expression in SR-stimulated BAL cells of a normal patient; format: cell-based, human
Experimental: A broncho-alveolar lavage was performed on a normal patient, and alveolar macrophages were isolated.

[4] = system: mouse tracheal airway smooth muscle; experiment: Isometric study on isolated mouse tracheas pre-contracted with metacholine; conditions: cumulative doses, metacholine 10^−5
Experimental: Tracheal rings were mounted isometrically to force transducers in organ baths containing Krebs bicarbonate solution at 37° C. and bubbled with 95% O2-5% CO2, pre-contracted with submaximal concentration of metacholine (10^−5) and cumulative doses of the analogs were added to the baths. Changes of tension are recorded. Results are expressed as a percentage of maximal contraction (FIG. 29).
As described previously, tracheal or bronchial rings were mounted isometrically to force transducers in organ baths containing Krebs bicarbonate solution at 37° C. and bubbled with 95% O2-5% CO2, pre-contracted with submaximal concentration of metacholine cumulative doses of ASM-002 added. Changes of tension are recorded. Results are expressed as a percentage of maximal contraction for mouse (FIG. 34, p=0.002), dog (FIG. 35, p=0.004) and human (FIG. 36)

blood eosinophils = experiment: Blood eosinophil transmigration through an artificial basement membrane (Matrigel coated chemotaxis chamber); format: cell-based; conditions: purified blood eosinophils, Matrigel
Description: Infiltration of eosinophils and other inflammatory cells into lung tissues is an important feature of asthma and the cause of airway inflammation and hyper-responsiveness. The passage of inflammatory cells from the circulation to the lung involves migration through the vascular endothelium, the basement membrane, and extra-cellular matrix components. Inflammatory cells cross the basement membrane by producing proteinases. In these preliminary in vitro experiments, the effects of various nicotinic agonists on the migration of purified blood eosinophils through an artificial basement membrane (Matrigel® coated chemotaxis chamber) were investigated. […] Results are expressed as a percentage of inhibition (agonists-treated cells) compared to the control condition without the agonists.

[5] = system: CD80 expression on AMJ2-C11 cells; experiment: B7 (CD80) molecule expression on AMJ2-C11 cells; format: cell-based, mouse; conditions: 40 μM for 48 h
Experimental: The effects of nicotine and DMPP on B7 (CD80) molecule expression were tested in vitro. AMJ2-C11 cells (mouse alveolar macrophages, from the ATCC) were incubated with 40 μM nicotine or DMPP and stimulated with LPS (0.1 μg/ml) or SR antigen (50 μg/ml) for 48 hours.

[6] = system: allergic inflammation of the lungs in ovalbumin-sensitized mice; experiment: Ovalbumin-sensitized mouse asthma model, BAL cell counts; format: in vivo, Balb/c mice
Experimental: Groups of Balb/c mice were sensitized by intra-peritoneal injection of 20 μg OVA protein (chicken egg albumin; Sigma-Aldrich) emulsified in 2 mg aluminum hydroxide in PBS. After 4 weeks, challenge doses of 1.5%/50 μl OVA were administered intranasally. The challenge was performed daily for 3 consecutive days and then the mice assessed for allergic inflammation of the lungs 24 h after the last aerosol exposure. Groups of mice were treated with various concentrations of DMPP during the challenge period. Broncho-alveolar lavage (BAL) was performed and the fluid centrifuged at 400 g to separate cells from liquid.
Ovalbumin-sensitized mice (n=8) were challenged with the allergen and simultaneously treated intra-nasally with increasing concentrations of ASM-002 (0.5 to 4 mg/kg/d) for 3 days. The number of cells recovered by broncho-alveolar lavage was used as a measure of lung inflammation.

[7] = system: IFN-γ mRNA in T lymphocytes isolated from BAL; experiment: IFN-γ mRNA in PHA-stimulated BAL lymphocytes from HP patients; format: cell-based, human
Experimental: Since one goal was to treat patients with DMPP or similar drugs, the effect of this drug was verified on lymphocytes from patients with HP. BAL were performed on patients with HP. Lymphocytes were isolated from the other BAL cells, stimulated with PHA and incubated with DMPP. The dose-response of DMPP were tested on cytokine mRNA production (by RT-PCR) for IFN-γ.

[8] = system: lung resistance after metacholine challenge; experiment: Airway hyper-reactivity / lung resistance to metacholine in asthmatic mice (FlexiVENT); format: in vivo; conditions: 0.5 mg/kg intranasal DMPP
Experimental: Airway hyper-reactivity (AHR) in response to metacholine was measured in anesthetized, tracheotomized, ventilated mice using a computer-controlled ventilator (FlexiVENT™).
Increasing doses of metacholine (0 mg/kg-32.5 mg/kg) were administered through the jugular vein.
Lung response to a broncho-constrictive agent, metacholine, was measured by a Flexi-vent® apparatus. Ovalbumin-sensitized animals were treated intra-nasally with ASM-002 (4 mg/kg) during 3 days and 10 minutes prior to the metacholine challenge and compared to untreated OVA-sensitized animals. A negative control group of un-sensitized animals and a positive control group that received Salbutamol (Ventolin) 10 minutes before the metacholine challenge were also included.

[9] = system: IL-10 mRNA expression in AMJ2-C11 cells; experiment: IL-10 mRNA expression by RT-PCR in AMJ2-C11 cells; format: cell-based, mouse; conditions: SR-stimulated 24 h, 80 μM
Experimental: The effect of nicotine or DMPP treatment on AMJ2-C11 cells was tested on TNF-α, IL-10 mRNA expression by RT-PCR. These cytokines are involved in the development of pulmonary inflammatory diseases such as HP, asthma and sarcoidosis (52-55). […] Reference is made to FIG. 3 where results are expressed as a % of expression, 100% being attributed to the LPS alone group. The intensity of the band was obtained by dividing the intensity of the TNF-α band by that of β-actin. […] Reference is made to FIG. 4 where results are expressed as described in FIG. 5.

C[N+]1(C)CCN(c2ccccc2)CC1 [DMPP, Dimethylphenylpiperazinium]
effect on SR-induced inflammation (BAL cells) ([1]; intra-nasal every 6 h, 24 h after SR, DMPP 0.5 mg/kg, nicotine 0.5 mg/kg, epibatidine 2 μg/kg): marked inhibitory effect | effect on SR-induced lung inflammation compared to the non-treated group ([1]; number of mice increased to 15): significant inhibition | TNF release [2]: inhibits TNF release | less CD86 expressed than non-treated cells ([3]; SR-stimulated BAL cells): 50% | expression of CD86 relative to non-treated cells ([3]; SR-stimulated alveolar macrophages): about half of the expression | relaxation of tracheal smooth muscles pre-contracted with metacholine [4]: dose dependant relaxation | inhibition of eosinophil transmigration (blood eosinophils): dose-related inhibition | percentage of expression of CD80 ([5]; LPS (0.1 μg/ml) stimulated, LPS alone 38%): 17% | percentage of expression of CD80 ([5]; SR antigen (50 μg/ml) stimulated, SR alone 35%): 20% | eosinophils and lymphocytes in BAL ([6]; first dose response, all groups (n=8; p<0.05)): significantly reduced | total cell counts in BAL ([6]; intra-peritoneal DMPP, 0.5 and 2.0 mg/kg doses, OVA challenged mice): significantly reduced | eosinophil and lymphocyte counts in BAL ([6]; second dose response, 0.1 and 0.5 mg/kg doses): significantly reduced | most effective dose for the anti-inflammatory effect ([6]; second dose response, IP): 0.5 mg/kg | expression of IFN-γ mRNA [7]: reduced expression of IFN-γ | % of augmentation of lung resistance compared to asthmatic mice ([8]; metacholine 0-32.5 mg/kg): reduced | PC200 (provocative challenge dose of 200% lung resistance augmentation) compared to asthmatic mice ([8]; p=0.04, n=6): significantly reduced | reduction (drop) of IL-10 mRNA expression [9]: 87% and 90%
